Laboratory results: patent US20210038545A1 (priority 2018, published 2021)

Columns and labels:
S. pneumoniae [1] = conditions: mouse, in vivo
S. pneumoniae [2] = conditions: mice colonized with IAV microbiota; 30 hrs after challenge; FIG. 4A
S. pneumoniae [3] = conditions: IAV (H3N2)-infected mice as printed; acetate from day 2 p.i.; 1×10^3 CFUs at 7 dpi; 30 hrs later; FIG. 4B
[4] = system: respiratory bacterial (including pneumococcal) and fungal infections; conditions: Ciarlo et al., 2016; cited from earlier work

Structure (SMILES)	bacterial loads in the lung (S. pneumoniae [1])	bacterial loads in the spleen (S. pneumoniae [1])	survival rate of double-infected mice (S. pneumoniae [1])	number of pneumococci in lungs (S. pneumoniae [2])	systemic dissemination of pneumococci out of the lungs (S. pneumoniae [2])	protective effect of acetate in Ffa2−/− mice (S. pneumoniae serotype 1; Ffa2−/− mice relative to FFA2-competent mice, FIG. 1B)	number of bacteria in the spleen (S. pneumoniae serotype 1; acetate 200 mM drinking water for five days before 1×10^6 CFUs i.n., 30 hours after challenge, FIG. 1A lower panel)	number of bacteria in the lungs (S. pneumoniae serotype 1; acetate 200 mM drinking water for five days before 1×10^6 CFUs i.n., 30 hours after challenge, vs vehicle, FIG. 1A upper panel)	bacterial load in the lung (S. pneumoniae [3])	bacterial load in the spleen (S. pneumoniae [3])	modulation of host defenses against respiratory bacterial and fungal infections [4]
CC(=O)O [acetate]	significantly reduced	significantly reduced	significant enhancement	lower number	lowered	significantly reduced	lowered	significantly reduced	significant lower	significant lower	
CCC(=O)O [propionate]											failed to modulate
